The source of these data is ChEMBL document CHEMBL5465560, “Selectivity Literature for EUbOPEN Chemogenomic Library” (2024).

Assay [1] has as its target RAC-beta serine/threonine-protein kinase (Homo sapiens) (UniProt P31751). The experiment in a line: Selectivity interaction (KinomeScan (DiscoverX)) EUB0000595a AKT2. Conditions: at 10 µM.
For assay [2], the target named is Dual specificity protein kinase CLK4 (Homo sapiens, UniProt Q9HAZ1). The experiment in a line: Selectivity interaction (KinomeScan (DiscoverX)) EUB0000666a CLK4. As to conditions: at 10 µM.
Assay [3] addresses Dual specificity mitogen-activated protein kinase kinase 1 (Homo sapiens, UniProt Q02750). The experiment in a line: Selectivity interaction (SelectScreen profiling (Invitrogen)) EUB0000607a MAP2K1. As to conditions: at 2 µM.
Assay [4] deals with Serine/threonine-protein kinase pim-1 (Homo sapiens, UniProt P11309). The experiment in a line: Selectivity interaction (SelectScreen profiling (Invitrogen)) EUB0000607a PIM1. Conditions: at 2 µM.
Assay [5] addresses Serine/threonine-protein kinase PRP4 homolog (Homo sapiens) (UniProt Q13523). The experiment in a line: Selectivity interaction (ActivX KiNativ screen (kinase selectivity in THP-1 cell lysates)) EUB0000639a PRPF4. As to conditions: lysate, at 0.04 µM. It counts as subcellular.
Assay [6] deals with Serine/threonine-protein kinase Chk2 (Homo sapiens) (UniProt O96017). The experiment in a line: Selectivity interaction (Ambit KINOMEscan and KiNATiv profiling in Jurkat cells) EUB0000090b CHEK2. The format is cell-based. As to conditions: at 1 µM.
The target of assay [7] is T1, Cyclin-dependent kinase-like 2 (Homo sapiens) (UniProt Q92772).
T1 sequence (whole entry): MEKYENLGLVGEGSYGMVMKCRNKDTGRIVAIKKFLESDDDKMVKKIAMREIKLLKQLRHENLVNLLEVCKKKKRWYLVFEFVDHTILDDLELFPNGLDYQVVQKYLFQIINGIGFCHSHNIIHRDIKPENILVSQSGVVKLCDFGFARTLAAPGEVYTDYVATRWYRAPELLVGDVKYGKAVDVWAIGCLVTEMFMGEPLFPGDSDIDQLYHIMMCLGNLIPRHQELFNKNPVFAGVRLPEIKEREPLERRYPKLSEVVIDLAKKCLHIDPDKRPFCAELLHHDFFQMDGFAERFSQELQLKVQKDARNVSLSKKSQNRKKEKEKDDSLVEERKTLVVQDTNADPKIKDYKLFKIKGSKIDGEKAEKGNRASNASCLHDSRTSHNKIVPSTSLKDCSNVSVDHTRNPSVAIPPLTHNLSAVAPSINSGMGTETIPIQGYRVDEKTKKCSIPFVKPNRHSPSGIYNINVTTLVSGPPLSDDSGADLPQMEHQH
The experiment in a line: Selectivity interaction (KINOMEscan (DiscoverX)) EUB0001868a CDKL2. Conditions: at 1 µM.

For assay [8], the system named is Epidermal growth factor receptor (Homo sapiens), P00533 [UNDEFINED MUTATION]. In words: Selectivity interaction (KinomeScan (DiscoverX)) EUB0000655a EGFR. As to conditions: at 10 µM.
Assay [9] deals with Cyclin-dependent kinase 9 (Homo sapiens, UniProt P50750). In words: Selectivity interaction (KinomeScan (DiscoverX)) EUB0000618a CDK9. As to conditions: at 10 µM.
Assay [10] has as its target T2, MAP kinase-activated protein kinase 5 (Homo sapiens) (UniProt Q8IW41).
T2 sequence (whole entry): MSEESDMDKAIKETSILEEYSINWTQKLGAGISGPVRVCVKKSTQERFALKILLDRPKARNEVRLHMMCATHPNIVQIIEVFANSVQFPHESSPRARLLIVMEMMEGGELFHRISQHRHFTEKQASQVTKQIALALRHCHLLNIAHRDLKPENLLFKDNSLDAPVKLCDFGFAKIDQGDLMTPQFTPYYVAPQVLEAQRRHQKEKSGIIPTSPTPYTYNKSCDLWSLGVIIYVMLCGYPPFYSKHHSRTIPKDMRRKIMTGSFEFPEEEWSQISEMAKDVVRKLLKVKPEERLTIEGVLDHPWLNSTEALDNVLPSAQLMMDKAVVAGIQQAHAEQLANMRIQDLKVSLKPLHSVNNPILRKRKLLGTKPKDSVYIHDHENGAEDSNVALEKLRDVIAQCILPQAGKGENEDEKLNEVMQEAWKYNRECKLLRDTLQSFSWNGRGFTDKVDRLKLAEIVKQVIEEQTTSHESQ
In words: Selectivity interaction (KinomeScan (DiscoverX)) EUB0000618a MAPKAPK5. Conditions: at 10 µM.

In assay [11] the target is T3, Dual specificity tyrosine-phosphorylation-regulated kinase 2 (Homo sapiens) (UniProt Q92630).
T3 sequence (whole entry): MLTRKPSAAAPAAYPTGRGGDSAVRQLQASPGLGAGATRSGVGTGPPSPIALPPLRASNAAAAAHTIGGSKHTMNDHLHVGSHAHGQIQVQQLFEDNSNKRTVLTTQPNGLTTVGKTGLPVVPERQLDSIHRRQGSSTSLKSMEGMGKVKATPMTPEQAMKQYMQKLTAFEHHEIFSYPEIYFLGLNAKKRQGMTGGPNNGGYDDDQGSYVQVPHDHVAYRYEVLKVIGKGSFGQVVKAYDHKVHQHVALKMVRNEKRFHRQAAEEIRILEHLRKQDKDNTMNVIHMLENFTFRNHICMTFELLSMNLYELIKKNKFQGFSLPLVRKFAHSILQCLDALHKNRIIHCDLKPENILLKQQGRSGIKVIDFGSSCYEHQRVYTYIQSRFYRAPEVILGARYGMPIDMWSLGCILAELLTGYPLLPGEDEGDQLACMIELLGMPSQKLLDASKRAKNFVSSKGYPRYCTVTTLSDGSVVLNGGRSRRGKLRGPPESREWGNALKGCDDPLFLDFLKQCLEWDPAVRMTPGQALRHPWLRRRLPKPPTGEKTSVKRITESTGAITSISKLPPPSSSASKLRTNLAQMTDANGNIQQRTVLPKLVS
In words: Selectivity interaction (KinomeScan (DiscoverX)) EUB0000092b DYRK2. As to conditions: at 10 µM.

Assay [12] addresses Tyrosine-protein kinase SYK (Homo sapiens, UniProt P43405). In words: Selectivity interaction (KinomeScan (DiscoverX)) EUB0001079a SYK. Conditions: at 1 µM.
Assay [13] concerns the target T4, Serine/threonine-protein kinase Sgk1 (Homo sapiens) (UniProt O00141).
T4 sequence (whole entry): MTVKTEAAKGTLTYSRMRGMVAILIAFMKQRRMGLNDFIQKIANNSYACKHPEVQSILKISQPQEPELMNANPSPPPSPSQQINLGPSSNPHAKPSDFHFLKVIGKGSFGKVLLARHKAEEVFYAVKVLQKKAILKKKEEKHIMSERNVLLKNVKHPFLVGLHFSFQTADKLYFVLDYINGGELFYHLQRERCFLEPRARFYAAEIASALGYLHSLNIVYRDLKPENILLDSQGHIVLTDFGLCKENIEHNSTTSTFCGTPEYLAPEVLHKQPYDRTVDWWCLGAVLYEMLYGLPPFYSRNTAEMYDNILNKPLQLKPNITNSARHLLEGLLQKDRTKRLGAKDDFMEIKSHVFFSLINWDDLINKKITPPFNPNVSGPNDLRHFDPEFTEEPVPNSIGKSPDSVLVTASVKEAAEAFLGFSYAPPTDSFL
In words: Selectivity interaction (Millipore kinase profiler) EUB0000124b SGK1. Conditions: at 10 µM.

Chain of Epidermal growth factor receptor (Homo sapiens), P00533 [UNDEFINED MUTATION] (P00533 whole entry, looked up, change not shown): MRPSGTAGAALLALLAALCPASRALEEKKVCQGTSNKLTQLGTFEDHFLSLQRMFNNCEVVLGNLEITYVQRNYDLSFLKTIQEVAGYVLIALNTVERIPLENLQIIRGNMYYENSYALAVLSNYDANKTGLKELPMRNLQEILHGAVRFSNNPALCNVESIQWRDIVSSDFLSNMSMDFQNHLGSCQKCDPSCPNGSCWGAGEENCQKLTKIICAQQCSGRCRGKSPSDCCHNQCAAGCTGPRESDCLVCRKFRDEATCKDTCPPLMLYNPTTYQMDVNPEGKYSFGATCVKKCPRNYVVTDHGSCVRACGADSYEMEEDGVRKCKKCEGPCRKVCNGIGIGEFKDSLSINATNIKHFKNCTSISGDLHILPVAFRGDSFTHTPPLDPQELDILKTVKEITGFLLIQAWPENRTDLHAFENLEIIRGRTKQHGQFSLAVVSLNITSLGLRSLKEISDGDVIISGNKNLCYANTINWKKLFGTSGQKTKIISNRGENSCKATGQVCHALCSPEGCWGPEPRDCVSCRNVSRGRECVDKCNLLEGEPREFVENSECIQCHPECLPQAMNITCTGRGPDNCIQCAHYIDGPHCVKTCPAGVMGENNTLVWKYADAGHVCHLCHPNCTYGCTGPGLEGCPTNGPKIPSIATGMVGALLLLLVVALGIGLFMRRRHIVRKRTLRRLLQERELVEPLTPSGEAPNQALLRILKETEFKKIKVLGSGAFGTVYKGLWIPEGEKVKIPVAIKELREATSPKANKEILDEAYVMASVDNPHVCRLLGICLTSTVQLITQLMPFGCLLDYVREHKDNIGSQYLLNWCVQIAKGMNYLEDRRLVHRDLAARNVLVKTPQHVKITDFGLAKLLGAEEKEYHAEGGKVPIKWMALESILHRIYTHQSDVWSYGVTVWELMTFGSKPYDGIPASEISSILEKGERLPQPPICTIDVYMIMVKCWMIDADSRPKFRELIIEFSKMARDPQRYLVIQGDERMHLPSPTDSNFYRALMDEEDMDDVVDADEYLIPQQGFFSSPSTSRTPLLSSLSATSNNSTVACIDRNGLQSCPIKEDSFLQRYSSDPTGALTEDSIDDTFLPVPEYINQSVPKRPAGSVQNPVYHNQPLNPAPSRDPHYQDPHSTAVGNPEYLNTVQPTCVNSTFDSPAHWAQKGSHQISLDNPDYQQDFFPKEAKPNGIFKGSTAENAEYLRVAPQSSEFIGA
Chain of Dual specificity mitogen-activated protein kinase kinase 1 (Q02750 whole entry): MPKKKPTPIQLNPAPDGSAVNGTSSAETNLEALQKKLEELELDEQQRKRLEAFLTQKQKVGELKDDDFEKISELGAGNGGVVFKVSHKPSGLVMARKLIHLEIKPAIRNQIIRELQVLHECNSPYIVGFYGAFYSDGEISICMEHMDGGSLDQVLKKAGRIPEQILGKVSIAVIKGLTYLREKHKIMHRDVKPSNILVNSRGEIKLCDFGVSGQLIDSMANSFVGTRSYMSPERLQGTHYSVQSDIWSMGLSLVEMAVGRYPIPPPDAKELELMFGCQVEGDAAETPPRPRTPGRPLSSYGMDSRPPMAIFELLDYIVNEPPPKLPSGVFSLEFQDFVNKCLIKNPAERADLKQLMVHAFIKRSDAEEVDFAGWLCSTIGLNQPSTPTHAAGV
Chain of Serine/threonine-protein kinase pim-1 (P11309 whole entry, looked up): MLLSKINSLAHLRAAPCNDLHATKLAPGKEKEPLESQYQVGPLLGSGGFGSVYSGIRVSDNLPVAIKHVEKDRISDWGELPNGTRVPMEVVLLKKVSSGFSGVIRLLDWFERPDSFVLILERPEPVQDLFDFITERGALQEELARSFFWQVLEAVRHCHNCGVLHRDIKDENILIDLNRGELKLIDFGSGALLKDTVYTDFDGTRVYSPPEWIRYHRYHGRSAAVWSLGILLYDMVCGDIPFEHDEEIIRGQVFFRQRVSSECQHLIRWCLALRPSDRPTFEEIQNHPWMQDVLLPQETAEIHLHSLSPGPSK
Chain of RAC-beta serine/threonine-protein kinase (Homo sapiens) (P31751 whole entry): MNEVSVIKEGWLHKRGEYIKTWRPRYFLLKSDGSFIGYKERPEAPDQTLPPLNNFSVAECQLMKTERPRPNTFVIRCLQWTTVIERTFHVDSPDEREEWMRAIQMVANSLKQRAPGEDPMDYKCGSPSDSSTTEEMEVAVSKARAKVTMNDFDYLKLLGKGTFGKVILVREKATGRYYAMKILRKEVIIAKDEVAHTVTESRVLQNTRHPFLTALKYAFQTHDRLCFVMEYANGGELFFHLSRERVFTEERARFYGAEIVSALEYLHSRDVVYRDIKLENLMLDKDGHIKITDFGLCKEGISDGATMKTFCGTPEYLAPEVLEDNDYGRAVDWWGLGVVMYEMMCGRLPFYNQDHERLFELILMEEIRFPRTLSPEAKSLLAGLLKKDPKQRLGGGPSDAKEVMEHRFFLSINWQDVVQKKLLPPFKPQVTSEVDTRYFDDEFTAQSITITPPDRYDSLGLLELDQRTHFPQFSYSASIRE
Chain of Dual specificity protein kinase CLK4 (Q9HAZ1 whole entry, looked up): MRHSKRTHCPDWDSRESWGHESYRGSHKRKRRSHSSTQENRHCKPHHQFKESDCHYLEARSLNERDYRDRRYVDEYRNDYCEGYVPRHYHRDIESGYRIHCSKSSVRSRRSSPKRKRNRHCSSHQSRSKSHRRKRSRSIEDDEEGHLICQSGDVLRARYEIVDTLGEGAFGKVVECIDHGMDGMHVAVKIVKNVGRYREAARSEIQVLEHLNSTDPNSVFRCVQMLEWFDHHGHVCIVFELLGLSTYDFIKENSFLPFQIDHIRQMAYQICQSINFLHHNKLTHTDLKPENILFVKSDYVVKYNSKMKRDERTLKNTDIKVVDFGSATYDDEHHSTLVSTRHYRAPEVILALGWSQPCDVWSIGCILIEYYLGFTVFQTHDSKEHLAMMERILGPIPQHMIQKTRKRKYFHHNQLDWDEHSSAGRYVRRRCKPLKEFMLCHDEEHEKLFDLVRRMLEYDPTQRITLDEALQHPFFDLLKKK
Chain of Serine/threonine-protein kinase PRP4 homolog (Homo sapiens) (Q13523 whole entry): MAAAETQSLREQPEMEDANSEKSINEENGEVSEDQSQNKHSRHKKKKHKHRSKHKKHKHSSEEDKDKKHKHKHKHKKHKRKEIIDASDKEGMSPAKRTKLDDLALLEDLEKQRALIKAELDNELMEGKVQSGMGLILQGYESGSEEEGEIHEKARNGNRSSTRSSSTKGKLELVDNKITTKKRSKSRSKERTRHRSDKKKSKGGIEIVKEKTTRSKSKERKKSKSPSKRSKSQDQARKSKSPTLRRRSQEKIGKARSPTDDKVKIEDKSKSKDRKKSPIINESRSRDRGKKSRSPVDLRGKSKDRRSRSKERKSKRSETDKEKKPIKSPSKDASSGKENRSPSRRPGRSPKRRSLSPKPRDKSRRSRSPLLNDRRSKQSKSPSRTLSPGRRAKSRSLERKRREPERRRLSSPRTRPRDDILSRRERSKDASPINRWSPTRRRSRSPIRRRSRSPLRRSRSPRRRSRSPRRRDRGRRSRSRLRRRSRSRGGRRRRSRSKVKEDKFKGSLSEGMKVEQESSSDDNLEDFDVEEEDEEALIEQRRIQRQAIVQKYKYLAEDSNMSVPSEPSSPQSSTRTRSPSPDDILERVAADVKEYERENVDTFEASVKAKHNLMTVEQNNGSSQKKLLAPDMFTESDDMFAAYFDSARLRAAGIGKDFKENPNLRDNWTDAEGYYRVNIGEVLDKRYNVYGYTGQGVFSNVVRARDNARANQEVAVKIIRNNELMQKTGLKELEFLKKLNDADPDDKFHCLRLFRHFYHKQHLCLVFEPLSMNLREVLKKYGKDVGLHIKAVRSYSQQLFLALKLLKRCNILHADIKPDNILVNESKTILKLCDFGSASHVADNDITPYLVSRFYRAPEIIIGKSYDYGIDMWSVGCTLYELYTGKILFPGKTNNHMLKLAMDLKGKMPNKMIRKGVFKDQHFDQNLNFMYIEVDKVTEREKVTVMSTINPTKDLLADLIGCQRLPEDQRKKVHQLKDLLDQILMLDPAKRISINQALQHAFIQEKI
Chain of Cyclin-dependent kinase 9 (P50750 whole entry): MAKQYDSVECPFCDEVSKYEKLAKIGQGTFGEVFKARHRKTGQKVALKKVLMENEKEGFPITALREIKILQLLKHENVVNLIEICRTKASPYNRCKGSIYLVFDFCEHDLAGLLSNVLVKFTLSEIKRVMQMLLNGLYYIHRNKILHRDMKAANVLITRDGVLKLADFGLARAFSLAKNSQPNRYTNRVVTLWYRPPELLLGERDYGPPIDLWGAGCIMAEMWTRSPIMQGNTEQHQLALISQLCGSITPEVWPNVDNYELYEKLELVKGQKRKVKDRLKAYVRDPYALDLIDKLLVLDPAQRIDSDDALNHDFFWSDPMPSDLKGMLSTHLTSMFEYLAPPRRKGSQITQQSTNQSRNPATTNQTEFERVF
Chain of Serine/threonine-protein kinase Chk2 (Homo sapiens) (O96017 whole entry): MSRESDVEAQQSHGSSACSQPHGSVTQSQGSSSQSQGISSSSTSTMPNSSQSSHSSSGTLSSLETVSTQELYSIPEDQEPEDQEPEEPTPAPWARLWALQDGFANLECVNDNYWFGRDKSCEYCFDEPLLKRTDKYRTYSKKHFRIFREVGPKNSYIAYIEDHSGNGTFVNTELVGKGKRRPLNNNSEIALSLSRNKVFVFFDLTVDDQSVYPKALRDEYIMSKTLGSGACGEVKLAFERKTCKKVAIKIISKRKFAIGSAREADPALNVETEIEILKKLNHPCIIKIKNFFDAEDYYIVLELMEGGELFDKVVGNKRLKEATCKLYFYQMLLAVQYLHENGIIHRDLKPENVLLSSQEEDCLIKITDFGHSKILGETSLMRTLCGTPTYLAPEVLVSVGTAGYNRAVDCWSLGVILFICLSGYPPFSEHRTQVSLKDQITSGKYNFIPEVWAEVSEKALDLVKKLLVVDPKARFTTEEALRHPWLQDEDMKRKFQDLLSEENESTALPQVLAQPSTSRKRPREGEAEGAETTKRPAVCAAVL

Take `COCC(=O)NC/C=C/c1ccc2ncnc(Nc3ccc(Oc4ccc(C)nc4)c(C)c3)c2c1` [CP-724714]: in assay [1], the % of control came out at 100%.
As for `O=C(NOC[C@H](O)CO)c1ccc(F)c(F)c1Nc1ccc(I)cc1F`, the % of control in [2] came out at 89%.
As for `CNC(=O)Nc1ccc(-c2nc(N3CC4CCC(C3)O4)c3cnn(C4CCC5(CC4)OCCO5)c3n2)cc1`, the results for the % of inhibition in [3] and in [4] were 3% and 1%, respectively.
Take `CC[C@@H]1[C@H](F)C(=O)N[C@@H]1COc1nccc2cc(C(N)=O)c(OC)cc12` [ZIMLOVISERTIB]: the % of inhibition in assay [5] was 4.1%.
Consider `CN(C)C/C=C/C(=O)Nc1ccc(C(=O)N2CCCC(Nc3ncc(Cl)c(-c4c[nH]c5ccccc45)n3)C2)cc1` (stereo not drawn), for which the % of control in assay [6] was found to be 81%.
Regarding `Cc1cc(-c2ccnc(Nc3cnn(C)c3)n2)ccc1CNC(=O)N1CC(OC(C)C)C1`, the % of control in assay [7] came out at 15%.
For the compound `CN(C)CCOc1ccc(-c2nc(-c3ccncc3)c(-c3ccc4c(c3)CC/C4=N\O)[nH]2)cc1`, in assay [8], the % of control stood at 54%.
As to `O[C@H]1CC[C@H](Nc2ncc3nc(Nc4c(F)cc(F)cc4F)n([C@H]4CCOC4)c3n2)CC1`, the % of control in assay [9] turned out to be 78%; in assay [10] it was 100%.
Regarding `CCC(=O)N1CCN(c2ccc(-n3c(=O)ccc4cnc5ccc(-c6cnc7ccccc7c6)cc5c43)cc2C(F)(F)F)CC1`, the % of control in assay [11] was found to be 86%.
In turn, `Nc1cnc(N2CCc3cc(S(=O)(=O)Nc4c(F)cc(Cl)cc4F)cc(N4CCCC4=O)c32)nc1` [TP-020n] showed a % of control in [12] of 100%.
In assay [13], `CC(=O)Nc1cccc(-n2c(=O)n(C3CC3)c(=O)c3c(Nc4ccc(I)cc4F)n(C)c(=O)c(C)c32)c1` gave a % of control of 114%.
